Source: article PMC10385824, “Antiproliferative and Tubulin-Destabilising Effects of 3-(Prop-1-en-2-yl)azetidin-2-Ones and Related Compounds in MCF-7 and MDA-MB-231 Breast Cancer Cells” (Pharmaceuticals, 2023)
Like-named read-outs stand apart in the source and are kept apart here.

Experiments:
MALME-3M = assay: NCI-60 SRB screen, melanoma; assay type: cell-based, human; settings: MALME-3M, 48 h; for GI50: Homo sapiens, five dose 0.01–100 µM, read-out: GI50
OVCAR-5 = assay: NCI-60 SRB screen, ovarian cancer; assay type: cell-based, human; settings: OVCAR-5, 48 h; for GI50: Homo sapiens, five dose 0.01–100 µM, read-out: GI50
DU-145 = assay: NCI-60 SRB screen, prostate cancer; assay type: cell-based, human; settings: DU-145, 48 h; for GI50: Homo sapiens, five dose 0.01–100 µM, read-out: GI50
BT-549 = assay: NCI-60 SRB screen, breast cancer; assay type: cell-based, human; settings: BT-549, 48 h; for GI50: Homo sapiens, five dose 0.01–100 µM, read-out: GI50
786-0 = assay: NCI-60 SRB screen, renal cancer; assay type: cell-based, human; settings: 786-0, 48 h; for GI50: Homo sapiens, five dose 0.01–100 µM, read-out: GI50
[1] = test system: purified bovine brain tubulin; assay: Tubulin polymerization assay (light scattering, BK006 kit); assay type: biochemical; settings: compound at 10 μM; relative to vehicle
How it was run: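 Compounds tested at 10 µM against vehicle (1% DMSO or EtOH) with bovine brain tubulin, 3 mg/mL, in pH 6.9 PIPES buffer containing 1 mM GTP and 10% glycerol, 37 °C. Light scattering at 340 nm tracked microtubule formation; average of two independent runs reported.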

M14 = assay: NCI-60 SRB screen, melanoma; assay type: cell-based, human; settings: M14, 48 h; for GI50: Homo sapiens, five dose 0.01–100 µM, read-out: GI50
[2] = test system: MCF-7 human breast cancer cells; assay: cells
SF295 = assay: NCI-60 SRB screen, CNS cancer; assay type: cell-based, human; settings: SF-295, 48 h; for GI50: Homo sapiens, SF295, five dose 0.01–100 µM, read-out: GI50
SNB-75 = assay: NCI-60 SRB screen, CNS cancer; assay type: cell-based, human; settings: SNB-75, 48 h; for GI50: Homo sapiens, five dose 0.01–100 µM, read-out: GI50
SK-MEL-2 = assay: NCI-60 SRB screen, melanoma; assay type: cell-based, human; settings: SK-MEL-2, 48 h; for GI50: Homo sapiens, five dose 0.01–100 µM, read-out: GI50
T-47D = assay: NCI-60 SRB screen, breast cancer; assay type: cell-based, human; settings: T-47D, 48 h; for GI50: Homo sapiens, T47D, five dose 0.01–100 µM, read-out: GI50
OVCAR-8 = assay: NCI-60 SRB screen, ovarian cancer; assay type: cell-based, human; settings: OVCAR-8, 48 h; for GI50: Homo sapiens, five dose 0.01–100 µM, read-out: GI50
OVCAR-3 = assay: NCI-60 SRB screen, ovarian cancer; assay type: cell-based, human; settings: OVCAR-3, 48 h; for GI50: Homo sapiens, five dose 0.01–100 µM, read-out: GI50
RPMI-8226 = assay: NCI-60 SRB screen, leukemia; assay type: cell-based, human; settings: RPMI-8226, 48 h; for GI50: Homo sapiens, five dose 0.01–100 µM, read-out: GI50
MDA-MB-435 = assay: NCI-60 SRB screen, melanoma; assay type: cell-based, human; settings: MDA-MB-435, 48 h; for GI50: Homo sapiens, five dose 0.01–100 µM, read-out: GI50
NCI/ADR-RES = assay: NCI-60 SRB screen, ovarian cancer; assay type: cell-based, human; settings: 48 h; for GI50: Homo sapiens, five dose 0.01–100 µM, read-out: GI50
HCT-116 = assay: NCI-60 SRB screen, colon cancer; assay type: cell-based, human; settings: HCT-116, 48 h; for GI50: Homo sapiens, five dose 0.01–100 µM, read-out: GI50
HOP-62 = assay: NCI-60 SRB screen, non-small cell lung cancer; assay type: cell-based, human; settings: HOP-62, 48 h; for GI50: Homo sapiens, five dose 0.01–100 µM, read-out: GI50
HT29 = assay: NCI-60 SRB screen, colon cancer; assay type: cell-based, human; settings: HT29, 48 h; for GI50: Homo sapiens, HT-29, five dose 0.01–100 µM, read-out: GI50
NCI-H332M = assay: NCI-60 SRB screen, non-small cell lung cancer; assay type: cell-based; settings: Homo sapiens, five dose 0.01–100 µM, 48 h, read-out: GI50
HL-60(TB) = assay: NCI-60 SRB screen, leukemia; assay type: cell-based, human; settings: for GI50: Homo sapiens
NCI-H460 = assay: NCI-60 SRB screen, non-small cell lung cancer; assay type: cell-based, human; settings: NCI-H460, 48 h; for GI50: Homo sapiens, five dose 0.01–100 µM, read-out: GI50
UACC-62 = assay: NCI-60 SRB screen, melanoma; assay type: cell-based, human; settings: UACC-62, 48 h; for GI50: Homo sapiens, five dose 0.01–100 µM, read-out: GI50
MDA-MB-468 = assay: NCI-60 SRB screen, breast cancer; assay type: cell-based, human; settings: MDA-MB-468, 48 h; for GI50: Homo sapiens, five dose 0.01–100 µM, read-out: GI50
RXF 393 = assay: NCI-60 SRB screen, renal cancer; assay type: cell-based, human; settings: RXF 393, 48 h; for GI50: Homo sapiens, five dose 0.01–100 µM, read-out: GI50
CCRF-CEM = assay: NCI-60 SRB screen, leukemia; assay type: cell-based; settings: Homo sapiens, five dose 0.01–100 µM, 48 h, read-out: GI50
HS 578T = assay: NCI-60 SRB screen, breast cancer; assay type: cell-based; settings: Homo sapiens; HS 578T; five dose 0.01–100 µM, 48 h; read-out: GI50
[3] = MCF7, 72 h, read-out: cell viability
[4] = HL-60(TB), five dose 0.01–100 µM, 48 h

With `C=C(C)C1C(=O)N(c2cc(OC)c(OC)c(OC)c2)C1c1ccc(OC)c(O)c1` (stereo not shown) [9q, 4-(3-Hydroxy-4-methoxyphenyl)-1-(3,4,5-trimethoxyphenyl)-3-(prop-1-en-2-yl)azetidin-2-one] the GI50 (MALME-3M) was 20.5 µM, the “% Growth” value (MALME-3M; one dose 10 µM) was 63.23% and the GI50 (OVCAR-5) was 0.0494 µM. For the same compound, the “% Growth” value (OVCAR-5; one dose 10 µM) was 44.67%, the “% Growth” value (DU-145; one dose 10 µM) was -52.00% and the GI50 (DU-145) was 0.0215 µM. The “% Growth” value (BT-549; one dose 10 µM) was -9.94%, the GI50 (BT-549) was 0.011 µM and the “% Growth” value (786-0; one dose 10 µM) was 4.28%. For the same compound, the GI50 (786-0) was 0.0268 µM, the “Fold Reduction in Vmax” value [1] was 4.27 and the GI50 (M14) was 0.0173 µM. The “% Growth” value (M14; one dose 10 µM) was 3.41%, the IC50 ([2]; MCF7) was 0.01 µM and the IC50 ([2]; MCF7, 72 h) was 0.012 µM. The viability at 0.1 µM [2, 3] was 22%, the viability at 1 µM [2, 3] was 21% and the viability at 10 µM [2, 3] was 11%. The GI50 (SF295) was under 0.01 µM, the “% Growth” value (SF295; one dose 10 µM) was 20.26% and the GI50 (SNB-75) was 0.0473 µM. The “% Growth” value (SNB-75; one dose 10 µM) was 41.90%, the GI50 (SK-MEL-2) was 0.0446 µM and the “% Growth” value (SK-MEL-2; one dose 10 µM) was 9.55%. The GI50 (T-47D) was over 100 µM, the “% Growth” value (T-47D; one dose 10 µM) was 67.35% and the GI50 (OVCAR-8) was under 0.01 µM. For the same compound, the “% Growth” value (OVCAR-8; one dose 10 µM) was 14.64%, the GI50 (OVCAR-3) was 0.0207 µM and the “% Growth” value (OVCAR-3; one dose 10 µM) was -40.14%. For the same compound, the GI50 (RPMI-8226) was 0.0111 µM, the “% Growth” value (RPMI-8226; one dose 10 µM) was 11.06% and the GI50 (MDA-MB-435) was under 0.01 µM. The “% Growth” value (MDA-MB-435; one dose 10 µM) was -13.45%, the GI50 (NCI/ADR-RES) was under 0.01 µM and the “% Growth” value (NCI/ADR-RES; one dose 10 µM) was -2.95%. The “% Growth” value (HCT-116; one dose 10 µM) was -10.74%, the GI50 (HCT-116) was 0.0149 µM and the “% Growth” value (HOP-62; one dose 10 µM) was 22.22%. For the same compound, the GI50 (HOP-62) was 0.0521 µM, the “% Growth” value (HT29; one dose 10 µM) was 2.66% and the GI50 (HT29) was 0.187 µM. For the same compound, the GI50 (NCI-H332M; […]) was 0.0477 µM, the “% Growth” value (HL-60(TB); HL-60(TB), one dose 10 µM, 48 h) was -51.24% and the GI50 (HL-60(TB); [4]) was 0.0211 µM. For the same compound, the GI50 (HL-60(TB); HL-60, NCI screen) was under 0.034 µM, the GI50 (NCI-H460) was 0.03 µM and the “% Growth” value (NCI-H460; one dose 10 µM) was 3.52%. The GI50 (UACC-62) was under 0.01 µM, the “% Growth” value (UACC-62; one dose 10 µM) was 38.81% and the GI50 (MDA-MB-468) was under 0.01 µM. For the same compound, the “% Growth” value (MDA-MB-468; one dose 10 µM) was 13.36%, the GI50 (RXF 393) was 0.0428 µM and the “% Growth” value (RXF 393; one dose 10 µM) was 18.79%. For the same compound, the GI50 (CCRF-CEM) was 0.0192 µM and the GI50 (HS 578T) was 0.0106 µM.
In the case of `C=CCC1C(=O)N(c2cc(OC)c(OC)c(OC)c2)C1c1ccc(OC)c(O)c1` (stereo not shown) [10p, 4-(3-Hydroxy-4-methoxyphenyl)-1-(3,4,5-trimethoxyphenyl)-3-allylazetidin-2-one], the GI50 (MALME-3M) is reported as 0.0306 µM, the GI50 (OVCAR-5) is reported as 0.0618 µM and the GI50 (DU-145) is reported as 0.0266 µM. For the same compound, the GI50 (BT-549) was 0.0188 µM, the GI50 (786-0) was 0.0255 µM and the “Fold Reduction in Vmax” value [1] was 4.5. For the same compound, the GI50 (M14) was 0.0176 µM, the IC50 ([2]; MCF7, read-out: Antiproliferative Activity IC50, MCF-7, eight concentrations 0.001–50 μM, mean ± SEM, Table 3) was 0.031 ± 0.002 µM and the GI50 (SF295) was 0.0291 µM. For the same compound, the GI50 (SNB-75) was 0.0448 µM, the GI50 (SK-MEL-2) was 0.301 µM and the GI50 (T-47D) was 63.5 µM. It also gave a GI50 (OVCAR-8) of 0.034 µM, a GI50 (OVCAR-3) of 0.0233 µM and a GI50 (RPMI-8226) of 0.0406 µM. The GI50 (MDA-MB-435) was 0.0205 µM, the GI50 (NCI/ADR-RES) was 0.0206 µM and the GI50 (HCT-116) was 0.0249 µM. For the same compound, the GI50 (HOP-62) was 0.061 µM, the GI50 (HT29) was 0.36 µM and the GI50 (NCI-H332M) was 0.0512 µM. The GI50 (HL-60(TB); [4]) was 0.0323 µM, the GI50 (HL-60(TB); HL-60, NCI screen) was under 0.034 µM and the GI50 (NCI-H460) was 0.032 µM. The GI50 (UACC-62) was 0.032 µM, the GI50 (MDA-MB-468) was 0.025 µM and the GI50 (RXF 393) was 0.041 µM. For the same compound, the GI50 (CCRF-CEM) was 0.0361 µM and the GI50 (HS 578T) was 0.0517 µM.
